Assay results as given in US5294603A, “Pharmaceutical compositions containing didemnins” (The Board of Trustees of The University of Illinois, priority 1992, dated 1994).
Values after ≈ are worked out from the molar mass of the structure shown. Where two headings read alike, the source gives them in different places. Numbered stars: 1 amine (or outer) side, 2 acyl side, 3 side chain; on linkers, the order of the positions; unused ones are H or OH. Bridge positions count the residues as written; N and C are the ends. Square brackets hold non-standard residues; d marks the D form. Peptide text beside a SMILES is read from it. X4 = CC[C@H](C)[C@@H](N[*:1])[C@@H](O)CC(=O)O[C@@H](C(=O)[C@H](C)C(=O)[*:2])C(C)C; X1 = CC[C@H](C)[C@@H](N[*:1])[C@@H](O)CC(=O)O[C@H](C(=O)[C@H](C)C(=O)[*:2])C(C)C; X3 = CC[C@H](C)[C@H](N[*:1])[C@@H](O)CC(=O)O[C@H](C(=O)[C@H](C)C(=O)[*:2])C(C)C; NMeY = CN[C@@H](Cc1ccc(O)cc1)C(=O)O; aThr = C[C@H](O)[C@H](N)C(=O)O; dNMeL = CN[C@H](CC(C)C)C(=O)O

Tests used:
[1] = system: L1210; assay: L1210 cytotoxicity, inhibition at fixed doses (Table 10); assay type: cell-based, murine; details: tested 4/18/1991
[2] = system: Nb2 cells, rat T-cell node lymphoma; assay: Competitive binding with [3H]didemnin B to Nb2 cells; details: 3 h at 37° C.
Description: The immunosuppressive assay was performed by measuring competitive binding of tested compounds with [^3 H]didemnin B to Nb2 cells, rat T-cell node lymphoma. See, Russell, D. H., et al., J. Immunology, 1987, 138, 276-284.
^a Competing didemnins incubated with approximately 25 ng of [^3

[3] = system: DNA synthesis in Nb2 node lymphoma cells; assay: Inhibition of ongoing DNA synthesis in prolactin-stimulated Nb2 cells; assay type: cell-based, rat; details: Nb2 cells stimulated with prolactin for 24 h
Description: (§1) Also inhibitions of protein and DNA synthesis of several compounds were measured using Nb2 node lymphoma cells which were stimulated by a treatment of cells with prolactin. (ibid.)
(§2) ^a Nb2 cells were stimulated with prolactin for 24 h, then exposed to
(§3) ^b 50% Inhibitory concentration, calculated with linear regression

[4] = system: Protein synthesis in Nb2 node lymphoma cells; assay: Inhibition of ongoing protein synthesis in prolactin-stimulated Nb2 cells; assay type: cell-based, rat; details: Nb2 cells stimulated with prolactin for 24 h
Description: as §1, §2, §3

[5] = system: CV-1 monkey kidney cells
[6] = system: L1210 murine leukemia cells; details: Table 9
[7] = system: Visna virus (VIV); assay type: cell-based; parameters: key to % Protection / VIV Protection: I, indeterminate
[8] = system: L1210
[9] = system: cells of the VIV assay (not named)

| Compound | Inhibition (%) ([1]; dose 25 ng/mL) | Inhibition (%) ([1]; dose 250 ng/mL) | Inhibition of [3H]didemnin B binding (%) ([2]; 0.001 μg/mL) | Inhibition of [3H]didemnin B binding (%) ([2]; 0.01 μg/mL) | Inhibition of [3H]didemnin B binding (%) ([2]; 0.1 μg/mL) | Inhibition of [3H]didemnin B binding (%) ([2]; 1 μg/mL) | IC50 DNA [3] | IC50 Protein [4] | CV-1 [5] | Cytotoxicity L1210 IC50 [6] | VIV Protection [7] | Cytotoxicity percent L1210 inhibition ([8]; dose 5 ng/mL) | Cytotoxicity percent L1210 inhibition ([8]; dose 12.5 ng/mL) | Cytotoxicity percent L1210 inhibition ([8]; dose 25 ng/mL) | VIV Toxicity [9] |
| --- | --- | --- | --- | --- | --- | --- | --- | --- | --- | --- | --- | --- | --- | --- | --- |
| CC[C@H](C)[C@@H](NC(=O)[C@@H](NC(=O)[C@@H](CC(C)C)NC)[C@@H](C)O)[C@@H](O)CC(=O)O[C@H](C(=O)[C@H](C)C(=O)N[C@@H](CC(C)C)C(=O)N1CCC[C@H]1C(=O)N(C)[C@@H](Cc1ccc(OC)cc1)C(=O)O)C(C)C [Acyclodidemnin A (16), Acyclodidemnin A] (H-[dNMeL]T[X1]LP[NMeY](Me)-OH) | 25% | 99% | 0% | 7% | 6% | 8% | inactive (1 g) | inactive (1 g) | 0 | 0.03 µg/mL |  |  |  |  |  |
| CC[C@H](C)[C@H]1NC(=O)[C@@H](NC(=O)[C@@H](CC(C)C)N(C)C(=O)[C@@H]2CCCN2C(=O)[C@H](C)O)[C@@H](C)OC(=O)[C@H](Cc2ccc(O)cc2)NC(=O)[C@@H]2CCCN2C(=O)[C@H](CC(C)C)NC(=O)[C@@H](C)C(=O)[C@H](C(C)C)OC(=O)C[C@@H]1O [Didemnin N (13), Didemnin N] |  |  | 3% | 6% | 4% | 10% | 200,000 ng/mL |  | 0 | 0.03 µg/mL |  |  |  |  |  |
| CC[C@H](C)[C@H]1NC(=O)[C@@H](NC(=O)[C@@H](CC(C)C)NC)[C@@H](C)OC(=O)[C@H](Cc2ccc(OC)cc2)N(C)C(=O)[C@@H]2CCCN2C(=O)[C@H](CC(C)C)NC(=O)[C@@H](C)C(=O)[C@@H](C(C)C)OC(=O)C[C@@H]1O [Epididemnin A (15), Epididemnin A] (H-[dNMeL]T[X4]LP[NMeY](Me); ester 2-C) |  |  | 0% | 3% | 9% | 12% | inactive (1 g) |  | 0 | 0.3 µg/mL | < 0 |  |  |  |  |
| CC[C@H](C)[C@@H]1NC(=O)[C@@H](NC(=O)[C@@H](CC(C)C)N(C)C(C)=O)[C@H](C)OC(=O)[C@H](Cc2ccc(OC)cc2)N(C)C(=O)[C@@H]2CCCN2C(=O)[C@H](CC(C)C)NC(=O)[C@@H](C)C(=O)[C@H](C(C)C)OC(=O)C[C@@H]1O [N-Acetyldidemnin A (54), N-Acetyl didemnin A] (Ac-[dNMeL][aThr][X3]LP[NMeY](Me); ester 2-C) |  |  | 2% | 12% | 72% | 80% | 70 ng/mL (≈ 0.071 µM) |  |  | 0.0003 µg/mL | I | 89% | 93% | 94% | 94 |
| CC[C@H](C)[C@H]1NC(=O)[C@@H](NC(=O)[C@@H](CC(C)C)NC)[C@@H](C)OC(=O)[C@H](Cc2ccc(OC)cc2)N(C)C(=O)[C@@H]2CCCN2C(=O)[C@H](CC(C)C)NC(=O)[C@@H](C)[C@@H](O)[C@H](C(C)C)OC(=O)C[C@@H]1OC(C)=O [O-Acetyl-[H2-(2S,3R,4S)Hip^2]didemnin A] |  |  | 0% | 0% | 2% | 19% |  |  | 0 | 1 µg/mL |  |  |  |  |  |
